The record followed here is US8222298B2, “Methods of correcting imbalance between bone resorption and bone formation and kits and compositions therefor” (CHU Sainte-Justine, priority 2007, dated 2012).

For data set [1], the system named is adenylyl cyclase activity of forskolin-stimulated RAW 264.7 cells. Description: cAMP production in forskolin-stimulated RAW264.7 cells (enzyme immunoassay). The data set is classed as cell-based, mouse. The note with it: increasing doses, 10^-4M forskolin, 30 minutes at 37° C., no RANKL. As to the method:
RAW264.7 cells were grown in culture medium without RANKL until confluence (7 days). Cells were then incubated with 10^−4M of forskolin in presence of various concentrations of melatonin (FIG. 9, panel A), 4-P-PDOT (FIG. 9, panel B) or both (FIG. 9, panel C). Concentrations ranged from 10^−11 to 10^−5M for melatonin and from […] to 10^−4M for 4-P-PDOT. In the double treatment group, cells were treated with increasing concentrations of melatonin (10^−11 to 10^−5M) to which 10^−6M of 4-P-PDOT was added. After 30 minutes incubation at 37° C., cells were lysed in TRIS-EDTA buffer supplemented with protease and phosphodiesterase inhibitors at 4° C. The cAMP content was determined in duplicate in 200 μL aliquot of the supernatant using an enzyme immunoassay kit. […]

The subject of data set [2] is RAW264.7 cells. Description: Osteoclast differentiation measured by TRAP staining of RANKL-treated RAW264.7 cells. The data set is classed as cell-based, mouse. The settings on record: 2.5 or 6 days. As to the method:
Cellular model RAW264.7 (mouse macrophage cell line, ATCC # TIB-71). These cells differentiate in osteoclast-like cells upon addition of receptor activator of nuclear factor-kappaB ligand (RANKL). Cell differentiation usually occurs within two days. Cells were studied at 2.5 (early stage), 6 and 10 days (late stage) following RANKL addition. Experimental treatments: In some experiments, 4-P-PDOT was added to the cells at the same time as RANKL at a concentration of 10^−6M. Cells cultured with RANKL only served as controls. In order to assess osteoclastogenesis, RAW264.7 cells were cultured with RANKL for 2.5 or 6 days with and without 10^−6M of 4-P-PDOT. RAW264.7 cells were fixed with paraformaldehyde and stained for TRAP activity (marker of active osteoclasts) at 2.5 and 6 days of differentiation. Positive-stained cells with more than 3 nuclei were counted in eight different microscopic fields done in quadruplicate. Results are presented in FIGS. 3A and B for the 2.5 or 6 days experiments, respectively. […] The effect of melatonin on osteoclastogenesis and osteoclast function was assessed with the same methods as those described in Examples 2 and 3 above except that cells were grown in the presence of 10^−9M of melatonin in addition to RANKL. In some experiments, melatonin was added along with 10^−6M of 4-P-PDOT. Cells treated with RANKL alone served as controls.

In data set [3] the test system is RAW 264.7 cells. The experiment in a line: Bone resorption assay on resorbable bone analog (BioCoat Osteologic discs). The note with it: 10^-9M melatonin with RANKL, 10 days culture. The data set is classed as cell-based, mouse. As to the method: Osteoclast activity was determined using a resorbable bone analog (BioCoat™ Osteologic™ discs, BD Biosciences). RAW 264.7 cells were plated on 16-well plates coated with this analog. 24 hours post-plating, cells were treated with RANKL alone or with RANKL+10^−6M of 4-P-PDOT for a period of 10 days. In another set of experiments, 10^−6M of 4-P-PDOT was added after 6 days of culture with RANKL and cells were cultured for an additional 4 days in order to examine the effects of 4-P-PDOT on more mature cells. At the end of the culture period, cells were detached with bleach and bone analog stained with 5% silver nitrate according to manufacturer's instructions to reveal the presence of resorbed bone area (resorption pits). The number of pits and the area of resorbed bone were quantified in 8 microscopic fields in duplicate using Bioquant™ software. The effect of melatonin on osteoclastogenesis and osteoclast function was assessed with the same methods as those described in Examples 2 and 3 above except that cells were grown in the presence of 10^−9M of melatonin in addition to RANKL. In some experiments, melatonin was added along with 10^−6M of 4-P-PDOT. Cells treated with RANKL alone served as controls.

Data set [4] has as its system RANK. The experiment in a line: RANK expression by RT-PCR in RAW264.7 cell-derived osteoclasts. In kind it is cell-based, mouse. The settings on record: RT-PCR after 6 days of treatment; 10^-9M melatonin, 10^-6M 4-P-PDOT. As to the method:
The effect of melatonin and of 4-P-PDOT on the expression of various genes involved in osteoclast differentiation and activity was evaluated by RT-PCR after 6 days of treatment.

The test system of data set [5] is male C57BL/6 mice. The experiment in a line: Femur section histology (TRAP and Goldner staining) in treated mice. In kind it is in vivo, mouse. The settings on record: 10 mg/kg intraperitoneally three times a week, 4 weeks. As to the method: The effect of 4-P-PDOT on the formation of bones has also been tested using 4-week old male C57BL/6 mice following weaning. Mice were injected intraperitoneally with 10 mg/kg of 4-P-PDOT three times a week for 4 weeks (28 days). After this period, femur sections were stained to quantify tartrate-resistant acidic phosphatase- (TRAP-) positive osteoclasts (i.e. “active” osteoclasts). […] A Goldner staining was also performed on the femur sections in order to quantify the total number of osteoclasts.

The test system of data set [6] is male C57Bl/6j mice. Description: Low-BMD mouse model: weight gain and bone densitometry over 35 days. In kind it is in vivo. The note with it: 10 mg/kg intraperitoneally three times a week, first 35 days. As to the method:
In parallel, control animals received injections of a solution made of water and ethanol (20%). During this period, animals were subjected to weekly bone densitometric measurements (BMD and bone mineral content (BMC)) with a PixiMus™ II bone densitometer, and blood and urine collection. Scan of individual spine, long bones (femurs), were performed. Scans of tibiae, radius and mandible were also performed. To monitor bone formation rate, 25 mg/kg of tetracycline hydrochloride was injected on days 10 and 20 following the beginning of the injections. Bone histomorphometry for bone formation and resorption static and dynamic parameters were also measured. The biochemical markers used are alkaline phosphatase for bone formation, and urinary deoxypyridinoline for bone resorption.

For data set [7], the system named is RAW264.7 cells. Description: Cell proliferation by tritiated thymidine incorporation. In kind it is cell-based, mouse. The settings on record: 10^-6M 4-P-PDOT with RANKL, 2.5 days. As to the method:
After 24 hour attachment, RAW264.7 cells were serum-starved overnight and then grown for 2.5 days in culture medium containing RANKL and melatonin (10^−7 or 10^−6M), or melatonin (10^−6M) and a melatonin receptor non-specific antagonist, luzindole (10^−8M), or melatonin (10^−6M) and 4-P-PDOT (10^−6M), or luzindole (10^−6M), or 4-P-PDOT (10^−6M) alone. Thymidine incorporation was assayed by the addition of 0.02 μCi/μL of tritiated thymidine to the medium 8 hours before cell harvest. Cells were then washed twice with ice-cold PBS and three times with cold 5% trichloroacetic acid. Cells were lysed in a mixture of 0.5N NaOH and 0.5% SDS and radioactivity of the lysates determined using a beta-counter.

The test system of data set [8] is RAW264.7 cells. The experiment in a line: Cell apoptosis by DeadEnd fluorometric TUNEL system. In kind it is cell-based, mouse. The note with it: 10^-6M 4-P-PDOT with RANKL, 6 days. As to the method: RAW264.7 cells were grown in culture medium with RANKL for 6 days with or without 10^−6M of 4-P-PDOT. Cells were fixed in 3.7% of paraformaldehyde and permeabilized with 0.2% Triton™-X-100. A subset of cells were treated with DNase for 10 minutes at room temperature and served as positive controls. Cell apoptosis was determined using the DeadEnd™ fluorometric TUNEL system. This method measures fragmented DNA through the incorporation of fluorescent-labeled d-UTP. Permeabilized cells were incubated in equilibration buffer with a nucleotide mix and the enzyme that catalyzes the reaction for 1 hour at 37° C. Negative controls were incubated without the enzyme. After several rinses in SSC and PBS, cells were mounted and visualized by fluorescence microscopy.

For the molecule `COc1ccc2[nH]cc(CCNC(C)=O)c2c1` [melatonin], the cAMP production entry in data set [1] is on record as “inhibited”. Further, the “effect on osteoclastogenesis (TRAP-positive cells)” value in data set [2] (10^-9M melatonin with RANKL) is on record as “did not have a significant effect”. Besides, the “bone resorption (resorption pits, resorbed area)” value in data set [3] was “significantly reduced bone resorption”. The “RANK's expression” value in data set [4] was “significant decrease”.
In the case of `CCC(=O)NC1Cc2ccccc2C(c2ccccc2)C1` (stereo not shown) [4-P-PDOT, 4-phenyl-2-propionamidotetralin], in data set [5], the “number of active (TRAP-positive) osteoclasts in femur sections vs control mice” value is “significant reduction”, the “number of total osteoclasts (Goldner staining) in femur sections” value is reported as “increased”, the “reduction in the relative number of active osteoclasts vs vehicle-treated mice” value is listed as “about 3 fold” and the “relative number of total osteoclasts vs vehicle-treated mice” value is “increased”. Moreover, in data set [5], the “trabecular bone (Goldner staining) in femur sections” value is recorded as “increased”. In addition, in data set [6], the “bone mineral accretion at the spine and whole body level vs vehicle-injected animals” value is “increase”; the “weight gain vs vehicle-injected animals” value is “increase”. Moreover, the cAMP production result in data set [1] was “cAMP production increases”. The “number of TRAP+ cells (osteoclast differentiation)” value in data set [2] (10^-6M 4-P-PDOT with RANKL) is reported as “reduces the number of TRAP+ cells”. For the same molecule, the “cell proliferation, treated vs. untreated cells” value in data set [7] is listed as “comparable”. Further, the “RANK's expression” value in data set [4] was “significant decrease”. For the same molecule, in data set [8], the “apoptosis, treated vs. untreated cells” value is on record as “comparable”.
